Reference: ChEMBL document CHEMBL1201862, “PubChem BioAssay data set” (2004)
Active and inactive are the calls of the source.

Experiments:
[1] = viability of uninfected HEp-2 cells – cell-based, HTS, cytotoxicity control for RSV inhibitor project, dose response (AID 2410); type: functional; details: human respiratory syncytial virus
[2] = target: T1, Heat shock factor protein 1 (Mus musculus, UniProt P38532); test: enhancement of HSF1-driven luciferase signal – cell-based, NIH3T3, luminescence, dose retest, confirmation (AID 435004); type: functional;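 further: stress induced by proteasome inhibitor MG132 added 30 min after compound; luciferase reporter driven by HSF1 response element in NIH3T3 cells; actives raise luminescence as potentiators of the MG132 stress response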
T1 sequence (P38532 whole entry): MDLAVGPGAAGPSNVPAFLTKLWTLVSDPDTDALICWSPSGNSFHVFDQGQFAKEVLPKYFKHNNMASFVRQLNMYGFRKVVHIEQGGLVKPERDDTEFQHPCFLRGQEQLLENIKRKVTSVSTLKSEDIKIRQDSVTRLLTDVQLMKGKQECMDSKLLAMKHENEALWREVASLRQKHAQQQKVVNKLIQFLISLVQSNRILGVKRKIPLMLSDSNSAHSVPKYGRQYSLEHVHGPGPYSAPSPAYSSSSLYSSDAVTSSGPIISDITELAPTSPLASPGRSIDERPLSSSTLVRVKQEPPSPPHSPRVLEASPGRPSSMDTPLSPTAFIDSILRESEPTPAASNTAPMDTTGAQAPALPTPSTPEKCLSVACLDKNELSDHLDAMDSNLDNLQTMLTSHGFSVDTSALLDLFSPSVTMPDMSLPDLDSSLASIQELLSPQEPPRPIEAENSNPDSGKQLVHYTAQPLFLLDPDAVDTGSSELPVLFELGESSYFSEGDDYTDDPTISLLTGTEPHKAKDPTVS

Cytochrome P450 1A2 = target: T2, Cytochrome P450 1A2 (Homo sapiens, UniProt P05177);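 further: PubChem cytochrome P450 panel assay, CYP1A2 panel member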
T2 sequence (P05177 whole entry): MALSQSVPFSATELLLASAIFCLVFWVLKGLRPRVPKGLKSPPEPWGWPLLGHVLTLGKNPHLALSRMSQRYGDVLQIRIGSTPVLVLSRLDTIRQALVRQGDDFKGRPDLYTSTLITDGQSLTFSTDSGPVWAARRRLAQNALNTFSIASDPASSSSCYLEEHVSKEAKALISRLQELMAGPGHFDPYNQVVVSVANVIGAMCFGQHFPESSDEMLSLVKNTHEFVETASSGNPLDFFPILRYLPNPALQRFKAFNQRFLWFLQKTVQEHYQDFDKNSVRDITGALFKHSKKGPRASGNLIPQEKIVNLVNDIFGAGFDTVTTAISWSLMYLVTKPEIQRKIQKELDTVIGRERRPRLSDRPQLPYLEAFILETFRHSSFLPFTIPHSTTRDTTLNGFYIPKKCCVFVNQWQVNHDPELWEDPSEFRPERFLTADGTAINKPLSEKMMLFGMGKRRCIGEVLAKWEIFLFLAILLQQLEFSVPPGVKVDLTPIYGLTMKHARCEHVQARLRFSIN

[3] = NIH-3T3 fibroblast cytotoxicity, dose response, cytotoxicity control, cell-based, fluorescence, Alamar Blue, secondary assay (AID 2327); type: functional;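 further: NIH-3T3 mouse fibroblasts cultured with fluconazole at 8 µg/mL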
[4] = system: Streptococcus sp. 'group A'; test: Streptococcus pyogenes SK(-)GAS viability under kanamycin – luminescence, BacTiterGlo, confirmation, counter-screen for streptokinase expression inhibitor project, dose response (AID 1900); type: functional, organism-based
Streptokinase A = target: T3, Streptokinase A (Streptococcus pyogenes serotype M1, UniProt P10520); test: viability-normalized secreted streptokinase activity reduction – plasminogen activation absorbance, OD405, dose response (AID 1914); type: functional, Streptococcus pyogenes M1 GAS;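 further: secreted streptokinase activity via plasminogen activation per viability signal from cell pellet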
T3 sequence (P10520 whole entry): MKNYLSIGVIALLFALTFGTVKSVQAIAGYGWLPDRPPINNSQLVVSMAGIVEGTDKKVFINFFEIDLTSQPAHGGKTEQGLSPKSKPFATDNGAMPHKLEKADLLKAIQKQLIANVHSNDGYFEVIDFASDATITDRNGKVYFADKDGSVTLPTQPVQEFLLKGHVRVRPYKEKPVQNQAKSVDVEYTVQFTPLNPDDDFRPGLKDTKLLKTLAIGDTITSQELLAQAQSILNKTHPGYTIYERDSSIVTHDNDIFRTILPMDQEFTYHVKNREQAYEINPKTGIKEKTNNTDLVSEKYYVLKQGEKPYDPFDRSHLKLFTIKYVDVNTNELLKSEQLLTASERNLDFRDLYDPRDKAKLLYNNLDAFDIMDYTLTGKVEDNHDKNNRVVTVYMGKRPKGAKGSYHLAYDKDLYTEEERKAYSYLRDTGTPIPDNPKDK

[5] = fluconazole-exposed Candida albicans growth modulators – fluorescence, retest, confirmation (AID 2467); type: functional, cell-based
Streptococcus = test: GAS UMAA2166 growth inhibition – luminescence, BacTiterGlo, counter-screen for streptokinase expression inhibitor project, dose response (AID 1915); type: functional, organism-based;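 further: potency for reduction of bacterial viability or growth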
Cytochrome P450 2C19 = Cytochrome P450 2C19 (Homo sapiens, UniProt P33261); test: Cytochrome panel assay with activity outcomes. Panel member name: p450-cyp2c19 Compounds with AC50 equal or less than 10 uM are considered active; type: functional
Cytochrome P450 2C9 = Cytochrome P450 2C9 (Homo sapiens, UniProt P11712)
H4 = test: Luminescence Cell-Based Dose Response HTS to Identify Activators of 5'UTR Stem-Loop Driven Prion Protein mRNA Translation in H4 Neuroglioblastoma Cells. [Related pubchem assays: 1829 (Project Summary), 1814 (Primary HTS)]; type: functional; details: Homo sapiens
[6] = Luminescence Cell-Based Dose Retest to Confirm Inhibitors of Cancer Stem Cells. [Related pubchem assays (depositor defined):AID2717, AID2721]; type: functional; details: Homo sapiens
[7] = Luminescence Cell-Based Dose Response HTS to Identify Activators of Luciferase Translation or Activity in H4 […] Cells. [Related pubchem assays: 1829 (Project Summary), 1814 (Primary HTS)]; type: functional
[8] = Luminescence Cell-Based Dose Response HTS to Identify Inhibitors of 5'UTR Stem-Loop Driven Prion Protein mRNA Translation in H4 Neuroglioblastoma Cells. [Related pubchem assays: 1827 (Project Summary), 1813 (Primary HTS)]; type: functional
[9] = alpha-synuclein stem-loop luciferase translation blockers – H4 neuroglioma cells, luminescence, confirmation (AID 1988); type: functional, cell-based

Chain of Cytochrome P450 2C9 (P11712 whole entry): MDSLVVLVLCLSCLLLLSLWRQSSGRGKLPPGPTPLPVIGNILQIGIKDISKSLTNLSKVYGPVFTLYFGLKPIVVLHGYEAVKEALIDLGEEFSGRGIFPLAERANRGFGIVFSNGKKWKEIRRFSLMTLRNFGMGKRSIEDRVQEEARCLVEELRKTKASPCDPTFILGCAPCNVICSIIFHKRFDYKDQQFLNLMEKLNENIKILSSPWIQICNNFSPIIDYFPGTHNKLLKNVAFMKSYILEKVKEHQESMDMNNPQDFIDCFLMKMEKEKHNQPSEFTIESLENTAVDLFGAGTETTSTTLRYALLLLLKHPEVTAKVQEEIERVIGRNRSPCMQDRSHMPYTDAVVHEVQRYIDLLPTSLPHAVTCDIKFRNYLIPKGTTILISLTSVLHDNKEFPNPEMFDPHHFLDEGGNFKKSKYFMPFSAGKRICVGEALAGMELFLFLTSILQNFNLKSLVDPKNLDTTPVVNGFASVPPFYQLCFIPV
Chain of Cytochrome P450 2C19 (P33261 whole entry): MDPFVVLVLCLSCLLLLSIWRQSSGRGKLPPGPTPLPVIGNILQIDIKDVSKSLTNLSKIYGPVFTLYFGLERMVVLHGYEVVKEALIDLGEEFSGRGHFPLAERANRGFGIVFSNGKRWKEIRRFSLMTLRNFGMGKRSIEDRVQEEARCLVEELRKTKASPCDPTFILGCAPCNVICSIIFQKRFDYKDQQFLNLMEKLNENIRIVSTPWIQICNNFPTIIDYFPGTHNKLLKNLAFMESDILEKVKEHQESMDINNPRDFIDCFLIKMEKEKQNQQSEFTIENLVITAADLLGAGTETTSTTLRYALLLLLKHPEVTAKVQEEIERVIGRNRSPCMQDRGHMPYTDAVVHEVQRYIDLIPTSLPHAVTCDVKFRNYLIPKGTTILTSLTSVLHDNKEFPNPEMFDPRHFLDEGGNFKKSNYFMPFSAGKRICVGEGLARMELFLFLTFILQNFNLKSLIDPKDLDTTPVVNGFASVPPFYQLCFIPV

CCc1nn(C(C)C(=O)NC(C)CCc2ccco2)c(=O)c2cc3occc3n12 (centres undefined)
CC50 [1]: > 50 µM (active) | EC50 [2]: > 260 µM (inactive)

CN1CCN(CCc2ccc(Cl)c(Cl)c2)CC1
AC50 (Cytochrome P450 1A2): 25.1 µM (inconclusive)

O=C(COC(=O)c1cn(-c2ccccc2)nc1-c1ccccc1)c1ccc([N+](=O)[O-])cc1
EC50 [2]: > 260 µM (inactive)

Cc1ccc(NC(=O)COC(=O)/C=C/c2ccc(Br)o2)cc1S(=O)(=O)N(C)C
EC50 [2]: > 260 µM (inactive)

O=C(N/N=C/c1cc([N+](=O)[O-])ccc1O)C(O)(c1ccccc1)c1ccccc1
EC50 [3]: > 150 µM (inactive) | EC50 [4]: 3.11 µM (active) | EC50 (Streptokinase A): > 150 µM (not active) | EC50 [5]: 2.29 µM (active) | EC50 (Streptococcus): 9.11 µM (active)

O=C(CNC(=O)c1ccco1)NCc1nc2ccccc2[nH]1
EC50 [4]: > 150 µM (not active) | EC50 (Streptokinase A): > 150 µM (not active) | EC50 (Streptococcus): > 150 µM (not active)

CCOC(=O)N1CCN(S(=O)(=O)c2cc(Cl)c(OC)cc2Cl)CC1
EC50 [2]: > 260 µM (inactive)

O=c1c2ccccc2nc(SCc2cn3ccsc3n2)n1-c1ccccc1
EC50 [2]: > 260 µM (inactive)

CC(C)SC1=NC(/C=C/c2ccc(Cl)cc2Cl)=CC(C)(C)N1
EC50 [2]: 38.9 µM (active)

C[N+]1(C)C[C@@H](O)C[C@@H]1C(=O)[O-] [BETONICINE]
AC50 (Cytochrome P450 2C19): inconclusive

COc1ccc(CN2CC(C(=O)NCCCN3CCOCC3)CC2=O)cc1 (centres undefined)
EC50 [2]: > 260 µM (inactive)

COc1ccc(CNS(=O)(=O)c2cc(CN3C(=O)c4cccnc4C3=O)ccc2OC)cc1
EC50 [2]: > 260 µM (inactive)

O=C(O)[C@H]1[C@H]2c3ccccc3[C@H](c3ccccc32)[C@@H]1C(=O)NCC1CC1
AC50 (Cytochrome P450 2C19; read-out: AC50): 3.98 µM (inconclusive)

CC(=O)OCc1c(C(F)(F)F)nn(C)c1Sc1ccccc1
AC50 (Cytochrome P450 2C9): 28.2 µM (inconclusive)

CC(=O)Nc1nnc(S(=O)(=O)N2CCN(c3ccc(Cl)cc3[N+](=O)[O-])CC2)s1
EC50 [4]: 29.1 µM (active) | EC50 (Streptokinase A): > 150 µM (not active) | EC50 (Streptococcus): > 150 µM (not active)

CC1CCC(C(=O)c2c(O)oc3ccccc3c2=O)CC1 (centres undefined)
EC50 [3]: > 150 µM (inactive) | EC50 [4]: 10.4 µM (active) | EC50 (Streptokinase A): > 150 µM (not active) | EC50 [5]: 2.01 µM (active) | EC50 (Streptococcus): 20.3 µM (active)

CC(C)c1ccc(/C=N/NC(=O)c2cccc(Cl)c2)cc1
EC50 (H4): 43.1 µM (active) | AC50 [6]: 2.88 µM (active)

c1ccc(Nc2nc(N3CCCCC3)nc(N3CCCCC3)n2)cc1
EC50 [4]: 11.7 µM (active) | EC50 (Streptokinase A): > 150 µM (not active) | EC50 (Streptococcus): 33.9 µM (active)

COC(=O)[C@@H]1CC[C@H](C)[C@@H](c2ccc(C)cc2)N1C(=O)c1ccc(/C=N\OCC[C@@H]2C=C[C@H](OC(C)=O)[C@H](COC(C)=O)O2)cc1
AC50 (Cytochrome P450 2C9): 3.98 µM (inconclusive)

Cc1ccc(S(=O)(=O)NCC(=O)OCC(=O)N2N=C(c3ccc(Cl)cc3)CC2c2ccco2)cc1C (centres undefined)
EC50 [4]: 18.6 µM (active) | EC50 (Streptokinase A): 22.4 µM (active) | EC50 (Streptococcus): 61 µM (active)

O=C(/C=C/c1ccccc1)NC(=S)NNC(=O)Cc1cccs1
EC50 [4]: 1.39 µM (active) | EC50 (Streptokinase A): > 150 µM (not active) | EC50 (Streptococcus): 30.3 µM (active)

COc1cccc(C(=O)c2c(C)c(CCC#N)n3ccccc23)c1OC
EC50 [2]: > 260 µM (inactive)

CC(=O)[C@@]1(O)CC[C@H]2[C@H]3C[C@@H](C)C4=CC(=O)C=C[C@]4(C)[C@@]3(F)[C@@H](O)C[C@]21C
AC50 (Cytochrome P450 2C9): 12.6 µM (inconclusive)

O=C(Nc1cccc(F)c1)N1CCC2(CC1)CCN(C(=O)Oc1ccccc1)CC2
AC50 (Cytochrome P450 2C9): 39.8 µM (inconclusive)

O=C(Nc1ccc([N+](=O)[O-])cc1)C1C(c2ccccc2)=C1c1ccccc1
EC50 [2]: > 260 µM (inactive)

CC(NC(=O)Cn1c(=O)[nH]c2ccsc2c1=O)C12CC3CC(CC(C3)C1)C2 (centres undefined)
EC50 [4]: > 150 µM (not active) | EC50 (Streptokinase A): > 150 µM (not active) | EC50 (Streptococcus): > 150 µM (not active)

COc1ccc2[nH]cc(CCNc3ncnc4ccc(-c5ccoc5)cc34)c2c1
AC50 (Cytochrome P450 2C9): 0.398 µM (inconclusive)

S=c1[nH]cc(Cc2ccccc2)s1
EC50 [2]: > 260 µM (inactive)

Cc1cc(NC(=O)c2cc(C)on2)n(-c2ccccc2)n1
EC50 [2]: > 260 µM (inactive)

CC[C@H](C)/C=C(C)/C=C/C(=O)Cc1cc(O)c(C)c(O)c1C=O
EC50 [2]: 27.5 µM (active)

COCCn1nc2cc(C(=O)NCc3cc(C(F)(F)F)cc(C(F)(F)F)c3)ccc2c1OC
AC50 (Cytochrome P450 2C19; read-out: AC50): 3.16 µM (inconclusive)

CCOc1nc(NCCc2ccc(OC)c(OC)c2)nc(NC(C)(C)CO)n1
AC50 (Cytochrome P450 2C9): 31.6 µM (inconclusive)

CN(C)C(=O)c1ccc(-c2ccc3ncnc(N(C)C)c3c2)cc1
AC50 (Cytochrome P450 2C9): 1.26 µM (inconclusive)

O=C(Nc1cccnc1)C1COc2ccccc2O1 (centres undefined)
AC50 (Cytochrome P450 2C9): 5.01 µM (inconclusive)

Cn1c(-c2ccc(Br)cc2)cnc1NCc1cccnc1
AC50 (Cytochrome P450 2C19; read-out: AC50): 17.8 µM (inconclusive) | AC50 (Cytochrome P450 2C9): 15.8 µM (inconclusive)

O=C(COc1cccc2cccnc12)Nc1ccccc1
EC50 [7]: 15.4 µM (active) | EC50 (H4): 15 µM (active)

Cc1c(C(=O)NCCN(C)C)oc2ccc(S(=O)(=O)N3CCCC3)cc12
EC50 [2]: > 260 µM (inactive)

CC(/C=C/c1ccc(N(C)C)cc1)=N/NC1=NC(=O)CC(C(=O)Nc2ccc(Cl)cc2)S1 (centres undefined)
EC50 [4]: 2.94 µM (active) | EC50 (Streptokinase A): > 150 µM (not active) | EC50 (Streptococcus): 8.65 µM (active)

CCOc1ccc(C(C)=O)cc1N1C(=O)C2C(C1=O)C1C=CC2C12CC2 (centres undefined)
AC50 (Cytochrome P450 2C19; read-out: AC50): 17.8 µM (inconclusive) | AC50 (Cytochrome P450 2C9): 14.1 µM (inconclusive)

COc1ccc(/C=C2\SC(=S)N(CCC(=O)NC3C=CS(=O)(=O)C3)C2=O)cc1 (centres undefined)
EC50 [8]: 15.7 µM (active) | EC50 [9]: 13.4 µM (active)

c1cn2c(NC3CCCCC3)c(-c3ccc(SC4CCCCC4)cc3)nc2cn1
EC50 [4]: 1.01 µM (active) | EC50 (Streptokinase A): > 150 µM (not active) | EC50 (Streptococcus): 4.27 µM (active) | AC50 [6]: 3.13 µM (active)

COc1cc(/C=C/C(=O)N2CCOCC2)ccc1OCc1ccccc1
EC50 [2]: > 260 µM (inactive)

Cc1ccc(-n2c3c(c(=O)[nH]c2=O)C(C(F)(F)F)(C(F)(F)F)NC(=O)N3)cc1
AC50 (Cytochrome P450 2C19; read-out: AC50): 39.8 µM (inconclusive) | AC50 (Cytochrome P450 2C9): 20 µM (inconclusive)

CC(C)(C)OC(=O)COc1cc(OCC(=O)OC(C)(C)C)c2c(=O)cc(-c3ccccc3)oc2c1
CC50 [1]: 19.6 µM (active) | AC50 (Cytochrome P450 2C9): 2 µM (inconclusive)

Cn1ncc(Br)c1C(=O)N1CCOCC1
EC50 [2]: > 260 µM (inactive)

Cn1c(-c2ccc(F)cc2)cnc1NCc1cccc(F)c1
AC50 (Cytochrome P450 2C9): 39.8 µM (inconclusive)
